Earlier results in Sander's compilation of Henry's law constants.

Experiment: Henry solubility constant Hcp at 298.15 K (mol/(m3 Pa))
Details: reference: Schüürmann (2000); cited value

Row | Compound | Henry solubility constant Hcp
1 | Sc1ccccc1 [benzenethiol] | 0.03
2 | Cc1ccc(C)cc1 [1,4-dimethylbenzene] | 0.0013
3 | Cc1ccccc1O [1-hydroxy-2-methylbenzene] | 8.3
4 | COc1ccccc1 [methoxybenzene] | 0.069
5 | c1ccccc1 [benzene] | 0.0018
6 | O=Cc1ccccc1 [benzaldehyde] | 0.37
7 | Clc1ccccc1 [chlorobenzene] | 0.0027
8 | O=[N+]([O-])c1ccccc1 [nitrobenzene] | 0.41
9 | CC(=O)c1ccccc1 [1-phenylethanone] | 0.93
10 | Cc1ccccc1 [methylbenzene] | 0.0015
11 | Clc1ccc(Cl)cc1 [1,4-dichlorobenzene] | 0.0041
12 | Cc1ccc(O)cc1 [1-hydroxy-4-methylbenzene] | 13
13 | Brc1ccccc1 [bromobenzene] | 0.004
